Target: T1, human TLR8 (Homo sapiens, UniProt Q9NR97)
T1 sequence (Q9NR97 27-1041): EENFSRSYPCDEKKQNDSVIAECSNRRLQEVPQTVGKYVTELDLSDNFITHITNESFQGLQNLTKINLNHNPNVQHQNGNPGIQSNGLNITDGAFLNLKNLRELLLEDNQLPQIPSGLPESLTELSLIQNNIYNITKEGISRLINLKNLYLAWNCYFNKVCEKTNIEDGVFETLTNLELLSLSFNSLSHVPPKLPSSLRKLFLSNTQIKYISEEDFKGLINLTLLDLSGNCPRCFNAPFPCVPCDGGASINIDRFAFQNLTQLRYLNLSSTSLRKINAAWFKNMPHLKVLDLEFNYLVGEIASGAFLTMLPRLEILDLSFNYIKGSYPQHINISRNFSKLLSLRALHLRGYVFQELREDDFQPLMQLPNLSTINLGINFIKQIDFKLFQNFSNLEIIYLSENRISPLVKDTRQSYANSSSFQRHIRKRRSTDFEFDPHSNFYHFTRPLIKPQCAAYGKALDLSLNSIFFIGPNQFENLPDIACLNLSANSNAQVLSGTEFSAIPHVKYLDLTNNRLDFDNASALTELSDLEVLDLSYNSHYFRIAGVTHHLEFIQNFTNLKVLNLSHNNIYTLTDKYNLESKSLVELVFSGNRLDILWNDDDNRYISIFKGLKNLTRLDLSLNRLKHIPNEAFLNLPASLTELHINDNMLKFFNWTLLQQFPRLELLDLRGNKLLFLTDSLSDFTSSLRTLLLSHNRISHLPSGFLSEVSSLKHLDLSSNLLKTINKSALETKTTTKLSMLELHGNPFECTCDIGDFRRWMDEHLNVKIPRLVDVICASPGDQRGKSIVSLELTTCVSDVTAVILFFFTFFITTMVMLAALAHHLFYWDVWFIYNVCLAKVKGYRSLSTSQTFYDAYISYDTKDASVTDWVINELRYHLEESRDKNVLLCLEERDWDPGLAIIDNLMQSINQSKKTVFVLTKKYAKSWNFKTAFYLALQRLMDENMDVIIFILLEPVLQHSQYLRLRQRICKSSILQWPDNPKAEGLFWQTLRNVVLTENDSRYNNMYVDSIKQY
Assay: HEK293-Blue-hTLR-8 cells assay (SEAP reporter, R848 stimulation)
Format: cell-based
Conditions: HEK293-Blue-hTLR8 cells, R848 ligand, 20 hrs incubation
Method: The following tests were carried out in order to determine the activity of the compounds of formula (I) in HEK293-Blue-hTLR-7/8/9 cells assay.
HEK293-Blue-hTLR-8 Cells Assay:
A stable HEK293-Blue-hTLR-8 cell line was purchased from InvivoGen (Cat. #: hkb-htlr8, San Diego, Calif., USA). These cells were originally designed for studying the stimulation of human TLR8 by monitoring the activation of NF-κB. A SEAP (secreted embryonic alkaline phosphatase) reporter gene was placed under the control of the IFN-β minimal promoter fused to five NF-κB and AP-1-binding sites. The SEAP was induced by activating NF-κB and AP-1 via stimulating HEK-Blue hTLR8 cells with TLR8 ligands. Therefore the reporter expression was declined by TLR8 antagonist under the stimulation of a ligand, such as R848, for incubation of 20 hrs. The cell culture supernatant SEAP reporter activity was determined using QUANTI-Blue™ kit (Cat. #: rep-qb1, Invivogen, San Diego, Ca, USA) at a wavelength of 640 nm, a detection medium that turns purple or blue in the presence of alkaline phosphatase.
HEK293-Blue-hTLR8 cells were incubated at a density of 250,000˜450,000 cells/mL in a volume of 170 μL in a 96-well plate in Dulbecco's Modified Eagle's medium (DMEM) containing 4.5 g/L glucose, 50 U/mL penicillin, […], […], 2 mM L-glutamine, 10% (v/v) heat-inactivated fetal bovine serum with addition of 20 μL test compound in a serial dilution in the presence of final DMSO at 1% and 10 μL of 60 uM R848 in above DMEM, perform incubation under 37° C. in a CO2 incubator for 20 hrs. Then 20 μL of the supernatant from each well was incubated with 180 μL Quanti-blue substrate solution at 37° C. for 2 hrs and the absorbance was read at 620-655 nm using a spectrophotometer. The signalling pathway that TLR8 activation leads to downstream NF-κB activation has been widely accepted, and therefore similar reporter assay was modified for evaluating TLR8 antagonist.

**Q.** For `C[C@H]1CN(C[C@H]2CN(c3ccc(C#N)c4nccnc34)C[C@@H]2C(F)(F)F)CC[C@H]1N` [Example 72, 8-[(3S,4R)-3-[[(3S,4R)-4-amino-3-methyl-1-piperidyl]methyl]-4-(trifluoromethyl)pyrrolidin-1-yl]quinoxaline-5-carbonitrile], which IC50 is on record?
**A.** 23 nM

**Q.** For `N#Cc1ccc(N2CC(CN3CC4(CCCNC4)C3)C3(CC3)C2)c2nccnc12` (stereo not drawn) [Example 24, 8-[7-(2,8-Diazaspiro[3.5]nonan-2-ylmethyl)-5-azaspiro[2.4]heptan-5-yl]quinoxaline-5-carbonitrile], which IC50 is on record?
**A.** 63 nM

**Q.** How did the IC50 turn out when `N#Cc1ccc(N2C[C@H](CN3CCC4(CCNC4)CC3)[C@@H](C(F)(F)F)C2)c2cccnc12` [Example 54, 5-[(3S,4R)-3-(2,8-Diazaspiro[4.5]decan-8-ylmethyl)-4-(trifluoromethyl)pyrrolidin-1-yl]quinoline-8-carbonitrile] was run?
**A.** 44 nM

**Q.** `N#Cc1ccc(N2C[C@H](CN3CC4CNCC4C3)[C@@H](C(F)(F)F)C2)c2nccnc12` (stereo partly drawn) [Example 76, 8-[(3S,4R)-3-(2,3,3a,4,6,6a-hexahydro-1H-pyrrolo[3,4-c]pyrrol-5-ylmethyl)-4-(trifluoromethyl)pyrrolidin-1-yl]quinoxaline-5-carbonitrile] was tested. Which IC50 did it give?
**A.** 41 nM

**Q.** `N#Cc1ccc(N2C[C@H](CN3CCCC(F)(CN)C3)[C@@H](C(F)(F)F)C2)c2nccnc12` (stereo partly drawn) [Example 78, 8-[(3S,4R)-3-[[3-(aminomethyl)-3-fluoro-1-piperidyl]methyl]-4-(trifluoromethyl)pyrrolidin-1-yl]quinoxaline-5-carbonitrile] was tested. Which IC50 did it give?
**A.** 30 nM

**Q.** Which IC50 does the source give for `N#Cc1ccc(N2C[C@H](CN3CCNCC3)[C@@H](C(F)(F)F)C2)c2nccnc12` [Example 59, 8-[(3S,4R)-3-(Piperazin-1-ylmethyl)-4-(trifluoromethyl)pyrrolidin-1-yl]quinoxaline-5-carbonitrile] here?
**A.** 14 nM

**Q.** Which IC50 does the source give for `C[C@H]1CN(c2ccc(C#N)c3ncccc23)C[C@@H]1CN1CCC2(CCNCC2)CC1` [Example 23, 5-[(3S,4R)-3-(3,9-diazaspiro[5.5]undecan-3-ylmethyl)-4-methyl-pyrrolidin-1-yl]quinoline-8-carbonitrile] here?
**A.** 266 nM

**Q.** With `N#Cc1ccc(N2CC(CN3CCC4(CCNC4)C3)C3(CC3)C2)c2cccnc12` (stereo not drawn) [Example 43, 5-[7-(2,7-Diazaspiro[4.4]nonan-2-ylmethyl)-5-azaspiro[2.4]heptan-5-yl]quinoline-8-carbonitrile] as the molecule, how does the IC50 read?
**A.** 718 nM

**Q.** For `N#Cc1ccc(N2C[C@H](CN3CC4(CC(N)C4)C3)[C@@H](C(F)(F)F)C2)c2nccnc12` [Example 47, 8-[(3S,4R)-3-[(6-amino-2-azaspiro[3.3]heptan-2-yl)methyl]-4-(trifluoromethyl)pyrrolidin-1-yl]quinoxaline-5-carbonitrile], which IC50 is on record?
**A.** 74 nM

**Q.** How did the IC50 turn out when `N#Cc1ccc(N2C[C@@H](CN3CCC4(CCNCC4)CC3)[C@H](C3CC3)C2)c2cccnc12` (relative stereo) [Example 28, 5-[Trans-3-cyclopropyl-4-(3,9-diazaspiro[5.5]undecan-3-ylmethyl)pyrrolidin-1-yl]quinoline-8-carbonitrile] was run?
**A.** 948 nM

**Q.** For `N#Cc1ccc(N2CC(CN3CCC(N)CC3)C3(CC3)C2)c2nccnc12` (stereo not drawn) [Example 68, 8-[7-[(4-Amino-1-piperidyl)methyl]-5-azaspiro[2.4]heptan-5-yl]quinoxaline-5-carbonitrile], which IC50 is on record?
**A.** 51 nM

**Q.** How did the IC50 turn out when `CC(C)[C@@H]1CN(c2ccc(C#N)c3ncccc23)C[C@H]1CN1CCC2(CCNCC2)CC1` (relative stereo) [Example 36, 5-[Trans-3-(3,9-diazaspiro[5.5]undecan-3-ylmethyl)-4-isopropyl-pyrrolidin-1-yl]quinoline-8-carbonitrile] was run?
**A.** 5170 nM

**Q.** Which IC50 does the source give for `N#Cc1ccc(N2CCC(CN3CCC4(CCNCC4)CC3)C2)c2nccnc12` (stereo not drawn) [Example 37, 8-[3-(3,9-Diazaspiro[5.5]undecan-3-ylmethyl)pyrrolidin-1-yl]quinoxaline-5-carbonitrile] here?
**A.** 531 nM

**Q.** For `N#Cc1ccc(N2C[C@H](CN3CCC(N4CCNCC4)CC3)[C@@H](C(F)(F)F)C2)c2cccnc12` [Example 52, 5-[(3S,4R)-3-[(4-piperazin-1-yl-1-piperidyl)methyl]-4-(trifluoromethyl)pyrrolidin-1-yl]quinoline-8-carbonitrile], which IC50 is on record?
**A.** 88 nM

**Q.** Which IC50 does the source give for `CN(C)C1CCN(C[C@H]2CN(c3ccc(C#N)c4nccnc34)C[C@@H]2C(F)(F)F)CC1` [Example 80, 8-[(3S,4R)-3-[[4-(dimethylamino)-1-piperidyl]methyl]-4-(trifluoromethyl)pyrrolidin-1-yl]quinoxaline-5-carbonitrile] here?
**A.** 32 nM

**Q.** `C[C@H]1CN(c2ccc(C#N)c3nccnc23)C[C@@H]1CN1CCC2(CCNCC2)CC1` [Example 17, 8-[(3S,4R)-3-(3,9-diazaspiro[5.5]undecan-3-ylmethyl)-4-methyl-pyrrolidin-1-yl]quinoxaline-5-carbonitrile] was tested. Which IC50 did it give?
**A.** 65 nM

**Q.** With `N#Cc1ccc(N2CC(CN3CC4CCNCC43)C3(CC3)C2)c2nccnc12` (stereo not drawn) [Example 50, 8-[7-(3,8-Diazabicyclo[4.2.0]octan-8-ylmethyl)-5-azaspiro[2.4]heptan-5-yl]quinoxaline-5-carbonitrile] as the molecule, how does the IC50 read?
**A.** 38 nM

**Q.** How did the IC50 turn out when `FC(F)(F)c1ccc(N2CC(CN3CCC4(CCNCC4)CC3)C3(CC3)C2)c2nccnc12` (stereo not drawn) [Example 31, 3-[[5-[8-(Trifluoromethyl)quinoxalin-5-yl]-5-azaspiro[2.4]heptan-7-yl]methyl]-3,9-diazaspiro[5.5]undecane] was run?
**A.** 418 nM

**Q.** For `CC(C)[C@@H]1CN(c2ccc(C#N)c3ncccc23)C[C@H]1CN1CCC2(CCNC2)C1` (relative stereo) [Example 44, 5-[Trans-3-(2,7-diazaspiro[4.4]nonan-2-ylmethyl)-4-isopropyl-pyrrolidin-1-yl]quinoline-8-carbonitrile], which IC50 is on record?
**A.** 533 nM

**Q.** `N#Cc1ccc(N2C[C@H](CN3CC4CCC3CN4)[C@@H](C(F)(F)F)C2)c2nccnc12` (stereo partly drawn) [Example 77, 8-[(3S,4R)-3-(2,5-diazabicyclo[2.2.2]octan-2-ylmethyl)-4-(trifluoromethyl)pyrrolidin-1-yl]quinoxaline-5-carbonitrile] was tested. Which IC50 did it give?
**A.** 26 nM

**Q.** For `N#Cc1ccc(N2C[C@H](CN3CCC4(CCCNC4)CC3)[C@@H](C(F)(F)F)C2)c2nccnc12` [Example 45, 8-[(3S,4R)-3-(2,9-diazaspiro[5.5]undecan-9-ylmethyl)-4-(trifluoromethyl)pyrrolidin-1-yl]quinoxaline-5-carbonitrile], which IC50 is on record?
**A.** 32 nM

**Q.** `N#Cc1ccc(N2CC(CN3CCC4NCC4C3)C3(CC3)C2)c2nccnc12` (stereo not drawn) [Example 66, 8-[7-(3,7-Diazabicyclo[4.2.0]octan-3-ylmethyl)-5-azaspiro[2.4]heptan-5-yl]quinoxaline-5-carbonitrile] was tested. Which IC50 did it give?
**A.** 82 nM

**Q.** Which IC50 does the source give for `N#Cc1ccc(N2CC(CN3C4CCC3CC(N)C4)C3(CC3)C2)c2nccnc12` (stereo not drawn) [Example 25, 8-[7-[(3-Amino-8-azabicyclo[3.2.1]octan-8-yl)methyl]-5-azaspiro[2.4]heptan-5-yl]quinoxaline-5-carbonitrile] here?
**A.** 108 nM

**Q.** Which IC50 does the source give for `CC1(N)CCN(CC2CN(c3ccc(C#N)c4nccnc34)CC23CC3)CC1` (stereo not drawn) [Example 7, 8-[7-[(4-Amino-4-methyl-1-piperidyl)methyl]-5-azaspiro[2.4]heptan-5-yl]quinoxaline-5-carbonitrile] here?
**A.** 43 nM

— patent publication US20210253575A1, “PYRROLIDINE AMINE COMPOUNDS FOR THE TREATMENT OF AUTOIMMUNE DISEASE” (Hoffmann-La Roche Inc., priority 2018, published 2021)
